Laboratory results published in patent publication US20060198914A1, “Use of rutin and isoharmnetin for treating depressive states and depression and other emotion disorders” (Bioplanta Arzneimittel GmbH, priority 2003, published 2006).

Test system: rats
Assay: forced swimming test in rats
Format: in vivo
Experimental: The antidepressive efficacy was examined by means of the so-called “forced swimming test” in rats. In performing this test rats are brought into an impasse situation (glass cylinder filled with water) over a specified period of 5 minutes. In this test the rats react with a rigor referred to as an immobilization period which is interpreted as a correlative to a depression. If the rats are treated with medicaments having an antidepressive efficacy before carrying out the test, the immobilization period is decreased. Since other psychotropic drugs such as anxiolytics or neuroleptics are not effective in this test, this test system is well suitable for detecting antidepressive effects (Porsolt et al. 1978; Porsolt, 1991). In this test all hitherto known antidepressives have to be administered over a period of several days in order to be effective (similar to the administration to patients). The test animals were treated either with the test substance or for control purposes with the solvent only or with the tricyclic antidepressive imipramine for a comparison of the efficacy.
The following tables exemplarily show the efficacy of rutin, isorhamnetin and plant extracts containing isorhamnetin derivatives or rutin in sufficient amounts. In each table the inhibition of the immobility is expressed in terms of % inhibition against the control group for comparison purposes.

Row | SMILES | Inhibition of immobility [% of the control] (Table 1, dose 30 mg/kg) | Inhibition of immobility [% of the control] (Table 2, dose 3 mg/kg) | Inhibition of immobility [% of the control] (Table 2, dose 10 mg/kg) | Inhibition [% of the control] (Table 3, dose 20 mg/kg) | Inhibition [% of the control] (Table 4, dose 20 mg/kg) | Inhibition [% of the control] (Table 5, dose 30 mg/kg) | Inhibition of immobility [% of the control] (Table 1, dose 3 mg/kg) | Inhibition of immobility [% of the control] (Table 1, dose 6 mg/kg) | Inhibition of immobility [% of the control] (Table 1, dose 12 mg/kg) | Inhibition of immobility [% of the control] (Table 1, dose 24 mg/kg) | Inhibition of immobility [% of the control] (Table 1, dose 48 mg/kg)
1 | CN(C)CCCN1c2ccccc2CCc2ccccc21 [Imipramine, imipramine, reference compound] | 46 % of the control | 3 % of the control | 24 % of the control | 43 % of the control | 43 % of the control | 64 % of the control |  |  |  |  | 
2 | COc1cc(-c2oc3cc(O)cc(O)c3c(=O)c2O)ccc1O [Isorhamnetin, 3,5,7-trihydroxy-2-(4-hydroxy-3-methoxyphenyl)-4H-1-benzopyran-4-one] |  | 17 % of the control | 56 % of the control |  |  |  |  |  |  |  | 
3 | C[C@@H]1O[C@@H](OC[C@H]2O[C@@H](Oc3c(-c4ccc(O)c(O)c4)oc4cc(O)cc(O)c4c3=O)[C@H](O)[C@@H](O)[C@@H]2O)[C@H](O)[C@H](O)[C@H]1O [Rutin, 3-[[6-O-(6-deoxy-α-L-mannopyranosyl)-β-D-glucopyranosyl]oxy]-2-(3,4-dihydroxyphenyl)-5,7-dihydroxy-4H-1-benzopyran-4-one] |  |  |  |  |  |  | 8 % of the control | 41 % of the control | 42 % of the control | 49 % of the control | 74 % of the control
